Test systems include SF-268 CNS; HOP-92 NSCLC; HCT-116 colon; OVCAR-3 ovarian; SF-539 CNS; MALME-3M melanoma; CAKI-1 renal; NCI-H460 lung; MDA-MB-231 breast; NCI-H522 lung; SW-620 colon; NCI-H226 lung; U251 CNS; HS 578T breast; IGROV1 ovarian; TK-10 renal; T-47D breast; ACHN renal; SK-MEL-28 melanoma.
Holding throughout (test): DTP human tumour cell line panel, 48 h

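A five-concentration, 48-hour dose response in 96-well plates underlies each endpoint, interpolated linearly between surrounding concentrations. At the TGI there is no net growth.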

As usually defined, the TGI is the concentration giving total growth inhibition. A lower TGI goes with more potent growth arrest. For `Nc1nc(N)c2nc(CN(C=O)c3ccc(C(=O)O)cc3)cnc2n1`, the TGI with SF-268 CNS, in the experiment with HOP-92 NSCLC, in the experiment with HCT-116 colon, in the experiment with OVCAR-3 ovarian, in the experiment with SF-539 CNS and in the experiment on MALME-3M melanoma was more than 100 µM each time. The TGI in the experiment on CAKI-1 renal, in the experiment on NCI-H460 lung, in the experiment with MDA-MB-231 breast, in the experiment on NCI-H522 lung, with SW-620 colon and in the experiment with NCI-H226 lung was more than 100 µM each time. Further, the TGI in the experiment with U251 CNS, with HS 578T breast, in the experiment on IGROV1 ovarian, in the experiment with TK-10 renal, in the experiment on T-47D breast and in the experiment with ACHN renal was more than 100 µM in each case. Further, in the experiment on SK-MEL-28 melanoma, the TGI is more than 100 µM.
For `CC(=O)c1csc2c1C(=O)c1ccccc1C2=O`, the TGI with SF-268 CNS is 12.9 µM; in the experiment with HOP-92 NSCLC, 89.1 µM; in the experiment on HCT-116 colon, 7.85 µM; in the experiment on OVCAR-3 ovarian it was more than 100 µM; with SF-539 CNS it was 5.65 µM; in the experiment with MALME-3M melanoma, 1.7 µM. Besides, the TGI with CAKI-1 renal was 18.2 µM; in the experiment on NCI-H460 lung it was 5 µM; in the experiment with MDA-MB-231 breast, more than 62.9 µM; with NCI-H522 lung, 4.1 µM; with SW-620 colon, 5.4 µM; with NCI-H226 lung, 3.42 µM. The TGI came to 13.9 µM with U251 CNS; 7.11 µM in the experiment on HS 578T breast; 6.42 µM with IGROV1 ovarian; 4.99 µM with TK-10 renal; 50.8 µM with T-47D breast; 4.57 µM with ACHN renal. In the experiment with SK-MEL-28 melanoma, this compound gave a TGI of 5.07 µM.
Regarding `COc1cc(/C=C(\C)[N+](=O)[O-])cc(OC)c1`, the TGI with SF-268 CNS was 35.6 µM; in the experiment with HOP-92 NSCLC, 28.2 µM; with HCT-116 colon it was 31.2 µM; with OVCAR-3 ovarian, 31.8 µM; in the experiment on SF-539 CNS it was 16.9 µM; in the experiment on MALME-3M melanoma, 29.4 µM. In addition, the TGI with CAKI-1 renal is 27.8 µM; with NCI-H460 lung, 39.5 µM; with MDA-MB-231 breast it was 31 µM; with NCI-H522 lung, 3.64 µM; with SW-620 colon, 9.16 µM; in the experiment on NCI-H226 lung, more than 94.7 µM. Moreover, the TGI with U251 CNS is 32.1 µM; in the experiment with HS 578T breast it was 68.6 µM; in the experiment on IGROV1 ovarian it was 17.6 µM; in the experiment on TK-10 renal it was 26.1 µM; in the experiment with T-47D breast it was 16.3 µM; in the experiment with ACHN renal, 30.3 µM. Also, in the experiment on SK-MEL-28 melanoma, the TGI amounted to 33.2 µM.
Regarding `NC1=Nc2cc(C(F)(F)F)ccc2Sc2nc3ccccc3n21`, the TGI in the experiment on SF-268 CNS was more than 100 µM; with HOP-92 NSCLC, 80.4 µM; with HCT-116 colon, more than 100 µM; in the experiment with OVCAR-3 ovarian it was more than 100 µM; in the experiment on SF-539 CNS, more than 100 µM; in the experiment with MALME-3M melanoma, more than 100 µM. The TGI is more than 100 µM in the experiment on CAKI-1 renal; more than 100 µM with NCI-H460 lung; more than 100 µM with MDA-MB-231 breast; more than 71.1 µM with NCI-H522 lung; more than 100 µM with SW-620 colon; more than 87.5 µM in the experiment on NCI-H226 lung. The TGI with U251 CNS, in the experiment on HS 578T breast, with IGROV1 ovarian, with TK-10 renal, in the experiment with T-47D breast and with ACHN renal was more than 100 µM throughout. In the experiment on SK-MEL-28 melanoma, this compound had a TGI of more than 100 µM.
As to `Clc1ccc(-c2cn3c(nc4ccccc43)c(-c3ccccc3)n2)cc1`, the TGI in the experiment on SF-268 CNS is more than 100 µM; in the experiment with HOP-92 NSCLC, 40.9 µM; with HCT-116 colon it was more than 100 µM; with OVCAR-3 ovarian it was more than 82.4 µM; in the experiment with SF-539 CNS, more than 69 µM; in the experiment on MALME-3M melanoma, more than 63.7 µM. Moreover, the TGI in the experiment with CAKI-1 renal is 32.1 µM; in the experiment on NCI-H460 lung, more than 57.4 µM; in the experiment on MDA-MB-231 breast, more than 100 µM; with NCI-H522 lung, 43.3 µM; with SW-620 colon, more than 100 µM; with NCI-H226 lung, more than 100 µM. The TGI is 25.3 µM in the experiment on U251 CNS; 66 µM with HS 578T breast; more than 78.3 µM with IGROV1 ovarian; 62.2 µM in the experiment with TK-10 renal; more than 75.5 µM in the experiment with T-47D breast; 95.9 µM in the experiment with ACHN renal. This compound gave a TGI in the experiment with SK-MEL-28 melanoma of more than 100 µM.
For the compound `CC1(C)N=C(C(N)=O)c2[nH]cnc2N1`, the TGI in the experiment with SF-268 CNS, with HOP-92 NSCLC, in the experiment with HCT-116 colon, in the experiment on OVCAR-3 ovarian, in the experiment with SF-539 CNS and in the experiment on MALME-3M melanoma was more than 100 µM in each case. Moreover, the TGI with CAKI-1 renal, with NCI-H460 lung, with MDA-MB-231 breast, in the experiment with NCI-H522 lung, with SW-620 colon and in the experiment with NCI-H226 lung was more than 100 µM each time. In addition, the TGI in the experiment on U251 CNS, in the experiment on HS 578T breast, in the experiment on IGROV1 ovarian, in the experiment on TK-10 renal, in the experiment on T-47D breast and in the experiment on ACHN renal was more than 100 µM throughout. In the experiment on SK-MEL-28 melanoma, this compound yielded a TGI of more than 100 µM.
On to `COC(=O)c1ccccc1CC1Cc2c(C)ccc(C)c2C1=O` (centres undefined), for which the total growth inhibition concentration (TGI) was more than 100 µM with SF-268 CNS; 54.4 µM in the experiment on HOP-92 NSCLC; 56 µM with HCT-116 colon; more than 100 µM in the experiment with OVCAR-3 ovarian; more than 100 µM in the experiment on SF-539 CNS; 57.5 µM in the experiment with MALME-3M melanoma. Moreover, the TGI is more than 100 µM with CAKI-1 renal; more than 100 µM in the experiment on NCI-H460 lung; more than 100 µM with MDA-MB-231 breast; 58.1 µM in the experiment on NCI-H522 lung; more than 100 µM in the experiment with SW-620 colon; more than 100 µM with NCI-H226 lung. The TGI in the experiment on U251 CNS is more than 100 µM; in the experiment on HS 578T breast, more than 100 µM; in the experiment with IGROV1 ovarian it was more than 100 µM; in the experiment on TK-10 renal, 71.2 µM; with T-47D breast it was 87.2 µM; with ACHN renal, more than 100 µM. The same compound yielded a TGI with SK-MEL-28 melanoma of more than 100 µM.
Consider `COC(=O)c1ccccc1C1CN=NC12Cc1ccc(C)cc1C2=O` (centres undefined), for which the TGI in the experiment on SF-268 CNS, with HOP-92 NSCLC, in the experiment with HCT-116 colon, with OVCAR-3 ovarian, with SF-539 CNS and in the experiment with MALME-3M melanoma was more than 100 µM throughout. The TGI with CAKI-1 renal, with NCI-H460 lung, in the experiment on MDA-MB-231 breast, in the experiment on NCI-H522 lung, in the experiment with SW-620 colon and in the experiment with NCI-H226 lung was more than 100 µM each time. Also, the TGI with U251 CNS, with HS 578T breast, in the experiment on IGROV1 ovarian, in the experiment on TK-10 renal, in the experiment with T-47D breast and with ACHN renal was more than 100 µM throughout. This compound displayed a TGI in the experiment on SK-MEL-28 melanoma of more than 100 µM.
Turning to `CC(C)=CCC[C@@H](C)C1=C(O)C(N[C@H](C)c2ccccc2)=C(C)C(=O)C1=O`, the total growth inhibition concentration (TGI) was more than 64.3 µM in the experiment with SF-268 CNS; 35.6 µM in the experiment with HOP-92 NSCLC; 20.4 µM in the experiment with HCT-116 colon; more than 100 µM in the experiment with OVCAR-3 ovarian; 10.2 µM with SF-539 CNS; 14.6 µM with MALME-3M melanoma. In addition, the TGI is 46.9 µM in the experiment with CAKI-1 renal; more than 40 µM in the experiment with NCI-H460 lung; 35.6 µM in the experiment with MDA-MB-231 breast; 8.67 µM with NCI-H522 lung; more than 45.2 µM in the experiment on SW-620 colon; 21.1 µM in the experiment on NCI-H226 lung. Further, the TGI in the experiment on U251 CNS was more than 100 µM; with HS 578T breast, 36.7 µM; in the experiment with IGROV1 ovarian, more than 36.2 µM; with TK-10 renal, 26.3 µM; in the experiment with T-47D breast it was 24.8 µM; in the experiment on ACHN renal, 17.1 µM. The compound further gave a TGI in the experiment with SK-MEL-28 melanoma of more than 46.7 µM.
Turning to `CN(C(=O)Cc1ccccc1)n1cn[n+](CC(=O)OC(C)(C)C)c1`, the TGI with SF-268 CNS, in the experiment on HOP-92 NSCLC, in the experiment on HCT-116 colon, in the experiment on OVCAR-3 ovarian, in the experiment with SF-539 CNS and in the experiment with MALME-3M melanoma was more than 10 µM each time. Further, the TGI with CAKI-1 renal, in the experiment with NCI-H460 lung, in the experiment on MDA-MB-231 breast, in the experiment on NCI-H522 lung, with SW-620 colon and with NCI-H226 lung was more than 10 µM each time. Also, the TGI in the experiment on U251 CNS, in the experiment with HS 578T breast, in the experiment with IGROV1 ovarian, with TK-10 renal, with T-47D breast and with ACHN renal was more than 10 µM throughout. This compound showed a TGI with SK-MEL-28 melanoma of more than 10 µM.
As for `OCCc1ccsc1-c1sc(-c2cc(CCO)c(-c3sc(-c4cc(CCO)c(-c5sccc5CCO)s4)cc3CCO)s2)cc1CCO`, the TGI in the experiment with SF-268 CNS was 2.14 µM; with HOP-92 NSCLC, 2.89 µM; with HCT-116 colon, 2.33 µM; in the experiment with OVCAR-3 ovarian, 2.72 µM; in the experiment with SF-539 CNS, 2.95 µM; in the experiment on MALME-3M melanoma, 2.36 µM. For the same compound, the TGI was found to be 2.95 µM with CAKI-1 renal; 2.95 µM in the experiment on NCI-H460 lung; 11.9 µM in the experiment on MDA-MB-231 breast; 2.36 µM in the experiment on NCI-H522 lung; 3.98 µM in the experiment with SW-620 colon; 3.86 µM with NCI-H226 lung. The TGI is 2.6 µM in the experiment on U251 CNS; 7.31 µM in the experiment with HS 578T breast; 2.6 µM in the experiment on IGROV1 ovarian; 3.15 µM with TK-10 renal; 3.56 µM in the experiment with T-47D breast; 3 µM in the experiment on ACHN renal. The compound further returned a TGI in the experiment on SK-MEL-28 melanoma of 3.27 µM.

Source of the values: PubChem BioAssay (NCI).
